melting point: 126 to 130 °C
SMILES: CC(Cc1c(-c2ccc(F)cc2)sc(Cl)c1Cl)NC(=O)c1cn(C)nc1C(F)(F)F (stereo not shown) [Compound 7.72, 1-methyl-3-trifluoromethyl-1H-pyrazole-4-carboxylic acid {2-[4,5-dichloro-2-(4-fluorophenyl)-thiophen 3-yl]1-methylethyl}amide]
